Measured values taken from patent publication US9637502B2, “Crystal form of Cefathiamidine compound and preparation method therefor” (TIANJIN UNIVERSITY, priority 2014, dated 2017).

Columns and labels:
[1] = Differential scanning calorimetry, decomposing exothermic peak; assay type: physicochemical; conditions: 25˜200° C., 10° C./min, nitrogen 80 mL/min
Method: The novel crystalline form of Cefathiamidine compound provided in the present invention is determined by differential scanning calorimeter, and the differential scanning calorimetry thermogram comprises a melting endothermic peak at 169.6±1° C. and a decomposing exothermic peak at 172.2±1° C. as shown in FIG. 6. Test conditions are as follows: temperature range, 25˜200° C., temperature rising rate, 10° C./min, nitrogen protection: 80 mL/min.

[2] = Reproductive toxicity test; assay type: in vivo; conditions: compared with prior art
Method: (§1) The novel crystalline form of Cefathiamidine compound of the present invention was tested by toxicity tests and in vitro antibacterial activity tests (taking the crystalline form of Cefathiamidine compound obtained in Example 1 for example).

[3] = Toxicity test, LD50 in mice; conditions: mouse, in vivo
Method: as §1

streptococcus pneumonia = experiment: In vitro antibacterial activity test; assay type: cell-based; conditions: Streptococcus pneumoniae; against streptococcus pneumonia
Method: as §1
(§2) Thus, the antibacterial activity was better than that of any prior art, and was more suitable for clinical application.

enterococcus = experiment: In vitro antibacterial activity test; assay type: cell-based; conditions: against enterococcus
Method: as §1, §2

streptococcus pyogenes = experiment: In vitro antibacterial activity test; assay type: cell-based; conditions: against streptococcus pyogenes
Method: as §1, §2

another three bacterias = experiment: In vitro antibacterial activity test; assay type: cell-based; conditions: against another three bacterias
Method: as §1, §2

haemophilus influenza = experiment: In vitro antibacterial activity test; assay type: cell-based; conditions: against haemophilus influenza
Method: as §1, §2

[4] = Thermal stability tests (storage); assay type: physicochemical; conditions: within 4 months at 30° C.
Method: 5 g of solid Cefathiamidine compound with a purity of 98% was added to 100 mL of ethanol at a temperature of 45° C., until being totally dissolved to form a solution, and then 300 mL of isopropanol as a solventing-out agent was dropwise added to the solution within 3 hours; followed by cooling the solution down to 0° C. at a rate of 0.2° C./min; continuing to stir for 3 hours.

[5] = prior-art crystalline forms; cited from earlier work

SMILES: CC(=O)OCC1=C(C(=O)O)N2C(=O)[C@@H](NC(=O)CSC(=NC(C)C)NC(C)C)[C@H]2SC1
- thermal decomposing temperature (decomposing exothermic peak, DSC) [1]: 172.2±1 °C

SMILES: CC(=O)OCC1=C(C(=O)O)N2C(=O)[C@@H](NC(=O)CSC(=NC(C)C)NC(C)C)[C@H]2SC1.N [Example 1, (6R,7R)-3[(acetyloxy)methyl]-7-[α-(N,N′-diisopropyl-carbamimidoylsulfanyl)-acetylamino]-8-oxo-5-thia-1-aza-bicyclo[4,2,0]oct-2-ene-2-carboxylic acid ammonium salt]
- reproductive toxicity [2]: lower reproductive toxicity than that of any prior art
- thermal decomposing temperature (decomposing exothermic peak, DSC) [1]: 172.2 °C
- LD50 ([3]; ip, intraperitoneal injection): 1300 ± 200 mg/kg
- LD50 ([3]; mice, intravenous injection): 1100 ± 20 mg/kg
- MIC90 (streptococcus pneumonia): 0.24 µg/mL
- MIC90 (enterococcus): 1.9 µg/mL
- MIC90 (streptococcus pyogenes): 0.48 µg/mL
- MIC90 (another three bacterias): < 7.8 µg/mL
- MIC90 (haemophilus influenza): 1.8 µg/mL
- thermal stability (change on storage) [4]: did not make any change

SMILES: CC(=O)OCC1=C(C(=O)O)N2C(=O)[C@@H](NC(=O)CSC(=NC(C)C)NC(C)C)[C@H]2SC1 [Example 6]
- thermal decomposing temperature (decomposing exothermic peak, DSC) [1]: 171.8 °C
- thermal stability (change on storage) [4]: did not make any change

SMILES: CC(=O)OCC1=C(C(=O)O)N2C(=O)[C@@H](NC(=O)CSC(=NC(C)C)NC(C)C)[C@H]2SC1 [crystalline form of Cefathiamidine obtained from acetonitril]
- thermal cracking / decomposition temperature [5]: 145.4 °C

SMILES: CC(=O)OCC1=C(C(=O)O)N2C(=O)[C@@H](NC(=O)CSC(=NC(C)C)NC(C)C)[C@H]2SC1 [crystalline form prepared in CN1495187A]
- thermal cracking / decomposition temperature [5]: ≥ 154±1 °C
